The source of these data is EPA's ToxRefDB 2.

Data set [1] deals with rat. The settings on record: Prenatal developmental toxicity study, sprague dawley, Oral, Gavage/Intubation, dose end: 15 GD.
Data set [2] relates to rat. The settings on record: Prenatal developmental toxicity study, sprague dawley, Oral, Gavage/Intubation, dose end: 19 GD.
Data set [3] concerns rat. The settings on record: Peri- and post-natal toxicity study (Segment III), sprague dawley, Oral, Gavage/Intubation, dose end: 5 PND.
In data set [4] the test system is rat. The note with it: Multigenerational reproductive toxicity study, sprague dawley, Oral, Water, dose end: 3 generation, systemic / pathology microscopic / liver / apoptosis + systemic / pathology microscopic / liver / glycogen deposition.
The subject of data set [5] is mouse. The note with it: Prenatal developmental toxicity study, swiss albino, Oral, Gavage/Intubation, dose end: 16 GD.
Data set [6] relates to rat. The note with it: Prenatal developmental toxicity study, sprague dawley, Oral, [Not Specified], dose end: 15 GD.
Data set [7] has as its system rat. The settings on record: Prenatal developmental toxicity study, sprague dawley, Injection, Subcutaneous, dose end: 15 GD.
Data set [8] relates to rat. The settings on record: Prenatal developmental toxicity study, sprague dawley, Injection, Intramuscular, dose end: 15 GD.
Data set [9] deals with rat. The settings on record: Prenatal developmental toxicity study, wistar, Injection, Intramuscular, dose end: 15 GD.
Data set [10] relates to rat. The note with it: Prenatal developmental toxicity study, sprague dawley, Oral, Gavage/Intubation, dose end: 19 GD. The source holds these as a separate data set.
Data set [11] concerns rat. The note with it: Prenatal developmental toxicity study, sprague dawley, Oral, Gavage/Intubation, dose end: 19 GD. The source holds these as a separate data set.
Data set [12] concerns mouse. The note with it: Prenatal developmental toxicity study, other, Oral, Water, dose end: 19 GD.
The mark [13] stands for this setting: group: developmental, developmental / developmental malformation / bone / absent + developmental / developmental malformation / bone / bipartite ossification + ….
The mark [14] stands for this setting: group: maternal, systemic / pathology gross / liver / enlarged + systemic / in life observation / clinical signs / salivation.
Where [15] appears, read: group: developmental, developmental / developmental malformation / bone / fused cartilage + systemic / in life observation / body weight / fetal weight.
Setting [16] is: group: maternal, systemic / in life observation / body weight / body weight gain + systemic / in life observation / food consumption / food consumption.
Setting [17] is: group: maternal, systemic / in life observation / body weight / body weight gain + systemic / in life observation / food consumption / food consumption + ….
The mark [18] stands for this setting: group: developmental, developmental / offspring survival late / viability index / viability index + developmental / developmental landmark / vaginal opening / ….
Where [19] appears, read: group: maternal, reproductive / offspring survival early / dead fetuses / dead fetuses.
The mark [20] stands for this setting: group: offspring, systemic / in life observation / body weight / offspring (pup) weight.
Where [21] appears, read: group: offspring, systemic / in life observation / body weight / offspring (pup) weight + systemic / organ weight / prostate / absolute + systemic / organ ….
Where [22] appears, read: group: developmental, developmental / developmental malformation / general / hemorrhage + developmental / developmental malformation / kidney / dilated renal ….
Setting [23] is: group: maternal, reproductive / reproductive performance / implantations / implantations + reproductive / reproductive performance / postimplantation loss / ….
Setting [24] is: group: developmental, developmental / developmental malformation / bone / wavy + developmental / developmental malformation / heart / membranous ventricular ….
Setting [25] is: group: maternal, reproductive / reproductive performance / postimplantation loss / postimplantation loss.
[26] abbreviates: group: developmental, developmental / developmental malformation / bone / wavy + systemic / in life observation / body weight / fetal weight.
Where [27] appears, read: group: developmental, developmental / developmental malformation / bone / unossified + systemic / in life observation / body weight / fetal weight.
The mark [28] stands for this setting: group: maternal, systemic / in life observation / body weight / body weight gain + systemic / in life observation / clinical signs / salivation.
The mark [29] stands for this setting: group: maternal, systemic / in life observation / body weight / body weight gain + systemic / in life observation / clinical signs / salivation + systemic / ….
The mark [30] stands for this setting: group: maternal, reproductive / reproductive performance / postimplantation loss / postimplantation loss + reproductive / reproductive performance / ….
Where [31] appears, read: group: developmental, developmental / developmental malformation / bone / delayed ossification + developmental / developmental malformation / bone / exencephaly….
The mark [32] stands for this setting: group: maternal, reproductive / reproductive performance / resorptions / resorptions + systemic / in life observation / body weight / body weight + systemic….

On to `C[N+]12CN3CN(CN(C3)C1)C2.[Cl-]`, for which, in the data set with rat [1] (setting [13]), the LEL was 1500 mg/kg/day; the LOAEL (usually the lowest dose or exposure tested at which an adverse effect was seen) stood at 1500 mg/kg/day; the NEL was below 1500 mg/kg/day; the NOAEL (as a rule, the highest dose or exposure tested at which no adverse effect was seen) was below 1500 mg/kg/day. Moreover, the LOAEL with rat [1] (group: maternal, systemic / in life observation / body weight / body weight + systemic / pathology gross / liver / enlarged) amounted to 3000 mg/kg/day. Also, the NOAEL in the data set with rat [1] (group: maternal, systemic / in life observation / body weight / body weight + systemic / pathology gross / liver / enlarged + reproductive / reproductive …) turned out to be 1500 mg/kg/day. In the data set with rat [1] (setting [14]), the LEL is 1500 mg/kg/day and the NEL was below 1500 mg/kg/day.

As to `CC(C)c1ccc2cc(C(C)C)ccc2c1` [2,6-Diisopropylnaphthalene], in the data set with rat [2] (setting [15]), the LEL is 500 mg/kg/day, the LOAEL was 500 mg/kg/day, the NEL came out at 150 mg/kg/day and the NOAEL is 150 mg/kg/day. In the data set with rat [2] (setting [16]), the LEL is 150 mg/kg/day and the LOAEL was 150 mg/kg/day. In the data set on rat [2] (setting [17]), the NEL came to 50 mg/kg/day and the no observed adverse effect level (NOAEL) came out at 50 mg/kg/day.

As to `CCCCCCCCc1ccc(O)cc1` [4-Octylphenol], the LEL amounted to 50 mg/kg/day with rat [3] (group: developmental, developmental / developmental landmark / vaginal opening / vaginal opening + developmental / developmental landmark / preputial separation…); 50 mg/kg/day in the data set on rat [3] (setting [19]); 12.5 mg/kg/day with rat [3] (setting [21]); 1.25 mg/kg/day in the data set on rat [4] (group: offspring); 1.25 mg/kg/day in the data set on rat [4] (group: parental). Moreover, the LOAEL is above 100 mg/kg/day with rat [3] (setting [18]); above 100 mg/kg/day with rat [3] (setting [19]); 25 mg/kg/day in the data set on rat [3] (setting [20]); above 1.25 mg/kg/day in the data set on rat [4] (group: offspring); above 1.25 mg/kg/day in the data set with rat [4] (group: parental). In addition, the NEL in the data set on rat [3] (setting [18]) was 25 mg/kg/day; in the data set with rat [3] (setting [19]), 25 mg/kg/day; with rat [3] (setting [21]), below 12.5 mg/kg/day; with rat [4] (group: offspring) it was below 1.25 mg/kg/day; with rat [4] (group: parental), below 1.25 mg/kg/day. For the same compound, the NOAEL with rat [3] (setting [18]) is at least 100 mg/kg/day; in the data set on rat [3] (setting [19]), at least 100 mg/kg/day; in the data set on rat [3] (setting [20]) it was 12.5 mg/kg/day; in the data set on rat [4] (group: offspring), at least 1.25 mg/kg/day; in the data set with rat [4] (group: parental), at least 1.25 mg/kg/day.

With `CC(C)OC(=O)C(C)(C)Oc1ccc(C(=O)c2ccc(Cl)cc2)cc1` [Fenofibrate], in the data set on mouse [5] (setting [22]), the LEL was determined as 11.7 mg/kg/day, the lowest-observed-adverse-effect level (LOAEL) was above 586 mg/kg/day, the NEL is below 11.7 mg/kg/day and the NOAEL is at least 586 mg/kg/day. In the data set on mouse [5] (setting [23]), the LEL was 586 mg/kg/day, the LOAEL was above 586 mg/kg/day, the NEL came to 117 mg/kg/day and the NOAEL is at least 586 mg/kg/day.

Turning to `OCC(O)CO` [Glycerol], the LEL with rat [6] (setting [24]) was 600 mg/kg/day; with rat [6] (setting [25]), 600 mg/kg/day; with rat [7] (setting [24]), 600 mg/kg/day; with rat [7] (setting [25]), 600 mg/kg/day; in the data set on rat [8] (setting [26]) it was 300 mg/kg/day; in the data set with rat [8] (setting [25]), 300 mg/kg/day. Moreover, the LEL with rat [9] (setting [24]) and with rat [9] (setting [25]) was 600 mg/kg/day each time. Besides, the lowest observed adverse effect level (LOAEL) is above 1200 mg/kg/day with rat [6] (setting [24]); above 1200 mg/kg/day in the data set on rat [6] (setting [25]); above 600 mg/kg/day in the data set with rat [7] (setting [24]); above 600 mg/kg/day in the data set on rat [7] (setting [25]); above 1200 mg/kg/day in the data set with rat [8] (setting [24]); above 1200 mg/kg/day in the data set on rat [8] (setting [25]). Also, the LOAEL in the data set with rat [9] (setting [24]) and in the data set with rat [9] (setting [25]) was above 600 mg/kg/day in each case. The NEL in the data set with rat [6] (setting [24]) was below 600 mg/kg/day; with rat [6] (setting [25]), below 600 mg/kg/day; in the data set with rat [7] (setting [24]) it was below 600 mg/kg/day; in the data set on rat [7] (setting [25]), below 600 mg/kg/day; in the data set on rat [8] (setting [26]), below 300 mg/kg/day; in the data set with rat [8] (setting [25]), below 300 mg/kg/day. Moreover, the NEL in the data set with rat [9] (setting [24]) and in the data set with rat [9] (setting [25]) was below 600 mg/kg/day throughout. In addition, the NOAEL in the data set with rat [6] (setting [24]) was at least 1200 mg/kg/day; in the data set on rat [6] (setting [25]) it was at least 1200 mg/kg/day; in the data set on rat [7] (setting [24]), at least 600 mg/kg/day; in the data set on rat [7] (setting [25]) it was at least 600 mg/kg/day; with rat [8] (setting [24]), at least 1200 mg/kg/day; in the data set with rat [8] (setting [25]), at least 1200 mg/kg/day. The NOAEL with rat [9] (setting [24]) and with rat [9] (setting [25]) was at least 600 mg/kg/day each time.

`CN=C=S` [Methyl isothiocyanate]: in the data set on rat [10] (setting [27]), the LEL is 30 mg/kg/day, the LOAEL amounted to 30 mg/kg/day, the NEL was 10 mg/kg/day and the NOAEL turned out to be 10 mg/kg/day. In addition, in the data set on rat [10] (setting [28]), the LEL stood at 10 mg/kg/day and the LOAEL is 10 mg/kg/day. In the data set with rat [10] (setting [29]), the NEL stood at 3 mg/kg/day and the NOAEL came out at 3 mg/kg/day.

In the data set with rat [11] (group: developmental, developmental / developmental malformation / bone / unossified), `CCC#N` [Propionitrile] yielded an LEL of 40 mg/kg/day. Besides, in the data set with rat [11] (setting [27]), the LOAEL was above 80 mg/kg/day, the NEL was determined as 20 mg/kg/day and the NOAEL is at least 80 mg/kg/day. Also, in the data set with rat [11] (setting [30]), the LEL was determined as 80 mg/kg/day, the LOAEL was above 80 mg/kg/day, the NEL is 40 mg/kg/day and the NOAEL was at least 80 mg/kg/day.

Regarding `Cl.Cl.NCCNCCNCCN` [Trientine hydrochloride], in the data set with mouse [12] (setting [31]), the LOAEL was above 1600 mg/kg/day, the NEL was 400 mg/kg/day and the no observed adverse effect level (NOAEL) is at least 1600 mg/kg/day. In the data set with mouse [12] (group: developmental, developmental / developmental malformation / bone / delayed ossification + developmental / developmental malformation / bone / microcephaly…), the LEL is 800 mg/kg/day. In the data set on mouse [12] (setting [32]), the LEL is 1600 mg/kg/day, the LOAEL was above 1600 mg/kg/day, the NEL came out at 800 mg/kg/day and the NOAEL is at least 1600 mg/kg/day.
